One experiment relates to Jurkat T cells. Nature of the experiment: IL-2 production by Jurkat cells on CD3XCD28 stimulation (IL-2 ELISA). The experiment is classed as cell-based, human. Particulars: wider ranges of compound concentrations. On the procedure: (§1) EXAMPLE 348. Several compounds according to the present invention employing the indolin-2-one HPK1 binding base, (which henceforth shall be referred to as the HC58 series, the HC65 series and the HC75 series) were assessed on their abilities to degrade HPK1 and produce an elevated IL-2 response profile upon stimulation by anti-CD3- and anti-CD28-mAb-mediated (CD3XCD28) stimulation (FIGS. 1-4). The elevated IL-2 response profile induced by TCR engagement after exposure to HC58 series of HPK1 degraders is shown in FIG. 1. […] A select sub-set of the lead HPK1 degraders from the HC58 series were further characterized to determine whether they could degrade primary mouse T cells.
EXAMPLE 351. […] Furthermore, compound HC58-78 and HC90-50 were also assessed for their abilities to enhance the CD3XCD28-induced IL-2 response by primary human PBMC (FIG. 10).
For the synthesis of intermediates and examples (1-89) below, HPLC spectra for all compounds were acquired using an Agilent 1200 Series system with DAD detector. […] Clone E6-1 cells is a preferred cellular platform for studying T cell activation in response to T cell receptor engagement because it produces the cytokine IL-2, which could be used as proxy readout for the level of T cell activation. […]
(In an ELISA, binding on a coated surface is turned into a signal by an enzyme label.)

For a further experiment, the target named is T1, HPK1 (Homo sapiens, UniProt Q92918).
T1 construct: endogenous in cells; host or cells: Jurkat T cells
Nature of the experiment: Western blot analysis of endogenous HPK1 level in Jurkat T cells. It is filed as cell-based. The conditions noted are these: for reducing HPK1 protein levels: characterization of exemplary degraders (FIGS. 1-14). On the technique in general: In western blotting, separated proteins are transferred to a membrane and probed.

The next experiment relates to CD4+ T cells. Nature of the experiment: CD28-independent IL-2 production by CD4+ T cells. The experiment is classed as cell-based. The conditions noted are these: fixed concentration of plate-bound antibody, varying concentrations of soluble anti-CD28 mAb (FIG. 6).
Experiment [1] has as its system CD4+ primary murine T cells. The experiment can be described thus: CD28-independent IL-2 production by CD4+ primary murine T cells (IL-2 ELISA). The conditions noted are these: 500 nM, plate-bound anti-CD3 mAb 5 μg/mL, varying soluble anti-CD28 mAb. The experiment is classed as cell-based, mouse. On the procedure:
EXAMPLE 34. I was observed that HPK1^−/− T cells, unlike their wild type counterparts, could readily produce IL-2 in response to CD3 □ crosslinking alone (data not shown). To assess whether HPK1 degraders could confer the same ability to produce IL-2 in a CD28-independent manner, CD4^+ primary murine T cells prepared as described in FIG. 5 were treated with 500 nM of HC58-75 HPK1 degrader or DMSO or Pomalidomide as controls. Their abilities to produce IL-2 in response a fixed concentration of plate-bound anti-CD3[…] mAb (5 μg/mL) in conjunction with varying soluble concentration of anti-CD28 mAb was then assessed.

The test system of another experiment is primary murine T cells. Nature of the experiment: IL-2 production by primary murine T cells. The experiment is classed as cell-based, mouse. On the procedure:
as §1

The next experiment deals with human PBMCs. Nature of the experiment: Intracellular IFNγ and TNFα staining of human PBMC (FACS). It is filed as cell-based. Particulars: in combination with blinatumomab. From the text:
EXAMPLE 355. One of the mechanisms employed by PBMC to kill their target cells is by releasing IFNγ and TNFα production. These inflammatory cytokines are known have potent cytolytic effects on cancer cells. […] Mediated PBMC killing of the Raji cells is most evident at PBMC:Raji ratio of 5:1 (FIG. 13).
To determine the number of CD19^+ Raji cells killed by human PBMC that were activated by the Blinatumomab-mediated activation, we used CountBright cell counting beads to estimate the number of cells remained after 72 hours of co-culturing of PBMC and Raji. As for the intracellular staining of the TNFα and the IFNγ, the standard para-formaldehyde-based “fix and perm” procedure was used in order to quantitate the amount of intracellular cytokine trapped inside the cells by brefeldin A. FACS analysis of stained cells is performed by BD's LSR II FACS.

Here are results for three molecules from patent US12465648B2, “Heterobifunctional compounds as degraders of HPK1” (ICAHN SCHOOL OF MEDICINE AT MOUNT SINAI, priority 2019, dated 2025).

T1 sequence (Q92918 whole entry): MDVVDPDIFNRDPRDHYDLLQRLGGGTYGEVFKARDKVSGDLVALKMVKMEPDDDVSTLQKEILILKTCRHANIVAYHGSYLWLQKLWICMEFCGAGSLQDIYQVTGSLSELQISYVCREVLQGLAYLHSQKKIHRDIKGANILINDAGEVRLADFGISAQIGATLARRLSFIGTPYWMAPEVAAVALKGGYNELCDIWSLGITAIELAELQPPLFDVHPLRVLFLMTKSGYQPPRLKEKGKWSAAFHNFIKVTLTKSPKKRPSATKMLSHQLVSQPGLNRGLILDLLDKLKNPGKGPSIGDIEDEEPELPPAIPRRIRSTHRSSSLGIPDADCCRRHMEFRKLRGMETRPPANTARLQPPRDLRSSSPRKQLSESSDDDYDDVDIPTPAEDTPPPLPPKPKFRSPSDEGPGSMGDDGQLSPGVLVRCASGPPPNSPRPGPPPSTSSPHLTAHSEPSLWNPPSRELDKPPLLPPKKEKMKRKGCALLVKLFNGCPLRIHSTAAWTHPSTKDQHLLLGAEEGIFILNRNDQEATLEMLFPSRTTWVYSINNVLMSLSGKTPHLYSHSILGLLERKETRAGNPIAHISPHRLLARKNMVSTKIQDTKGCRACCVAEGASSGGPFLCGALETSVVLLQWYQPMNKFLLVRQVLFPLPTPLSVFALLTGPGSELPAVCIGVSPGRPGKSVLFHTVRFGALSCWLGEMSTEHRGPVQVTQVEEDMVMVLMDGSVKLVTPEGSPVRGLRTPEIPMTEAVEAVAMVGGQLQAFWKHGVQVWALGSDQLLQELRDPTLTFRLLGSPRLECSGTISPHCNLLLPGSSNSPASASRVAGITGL

`COc1cccc(F)c1-c1ncc2[nH]nc(-c3ccc(N4CCN(C(=O)CCCNc5cccc6c5C(=O)N(C5CCC(=O)NC5=O)C6=O)CC4)cc3)c2n1` (stereo not shown) [HC90-51, 2-(2,6-dioxopiperidin-3-yl)-4-((4-(4-(4-(5-(2-fluoro-6-methoxyphenyl)-1H-pyrazolo[4,3-d]pyrimidin-3-yl)phenyl)piperazin-1-yl)-4-oxobutyl)amino)isoindoline-1,3-dione]: the “IL-2 response profile, rank within the HC90 series” value in the experiment with Jurkat T cells is given as “top two compounds from the HC90 series”. Moreover, the “reducing HPK1 protein levels” value on HPK1 is listed as “especially effective in reducing HPK1 protein levels”.
For `Cc1[nH]c(/C=C2\C(=O)Nc3ccc(F)cc32)c(C)c1C(=O)NCCCN1CCN(CC(=O)NCCCCCNc2cccc3c2C(=O)N(C2CCC(=O)NC2=O)C3=O)CC1` (stereo not shown) [HC58-75, (Z)—N-(3-(4-(2-((5-((2-(2,6-dioxopiperidin-3-yl)-1,3-dioxoisoindolin-4-yl)amino)pentyl)amino)-2-oxoethyl)piperazin-1-yl)propyl)-5-((5-fluoro-2-oxoindolin-3-ylidene)methyl)-2,4-dimethyl-1H-pyrrole-3-carboxamide], the “CD28-independent IL-2 production” value in the experiment with CD4+ T cells is “CD28-independent IL-2 production”. For the same molecule, in experiment [1], the “IL-2 production without CD28 co-receptor engagement” value is “could produce IL-2 without the help of CD28 co-receptor engagement”. Further, the “IL-2 production compared with the DMSO-treated counterpart” value in the experiment with primary murine T cells is given as “produced more IL-2 than the DMSO-treated counterpart”. For the same molecule, the “endogenous level of HPK1” value at HPK1 (Jurkat T cells, multiple day post exposure (FIG. 3)) is reported as “could reduce the endogenous level of HPK1”. For the same molecule, at HPK1, the “reducing HPK1 protein levels” value was “especially effective in reducing HPK1 protein levels”.
With `COc1cccc(F)c1-c1ncc2[nH]nc(-c3ccc(N4CCN(C(=O)CCNc5cccc6c5C(=O)N(C5CCC(=O)NC5=O)C6=O)CC4)cc3)c2n1` (stereo not shown) [HC90-50, 2-(2,6-dioxopiperidin-3-yl)-4-((3-(4-(4-(5-(2-fluoro-6-methoxyphenyl)-1H-pyrazolo[4,3-d]pyrimidin-3-yl)phenyl)piperazin-1-yl)-3-oxopropyl)amino)isoindoline-1,3-dione], in the experiment on Jurkat T cells, the “IL-2 response profile, rank within the HC90 series” value is “top two compounds from the HC90 series”. For the same molecule, the “percentage of human PBMCs that express high level of IFNγ and TNFα” value in the experiment on human PBMCs is “significantly increased”. Further, the “reducing HPK1 protein levels” value at HPK1 was “especially effective in reducing HPK1 protein levels”.
